Reference: patent US12559506B2, “Indazole based compounds and associated methods of use” (Arvinas Operations, Inc., priority 2021, dated 2026)

Target: T1, LRRK2 (endogenous, HiBit tagged) (Homo sapiens, UniProt Q5S007)
T1 construct: endogenous in cells; host or cells: HEK293 cells with HiBit knock-in at the endogenous LRRK2 locus, stably expressing firefly luciferase
Test: Endogenous LRRK2 degradation assay, endogenous gene C-terminally HiBit-tagged in HEK293 cells (Nano-Glo Dual Luciferase)
Type: cell-based
Conditions: endogenous HiBit-tagged LRRK2 in HEK293 cells, 24 hours treatment; for Dmax: read-out: **Endogenous WT Dmax (%); for DC50: read-out: *Endogenous WT DC50
Outline: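 LRRK2-HiBit quantified via Nano-Glo Dual Luciferase in HEK293 knock-in cells co-expressing firefly luciferase, after 24 h exposure to compound (1 μM final top, 1:3, 11 points). Values normalised to DMSO median per plate and curve-fitted; Alamar Blue viability run alongside.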

T1 sequence (Q5S007 whole entry): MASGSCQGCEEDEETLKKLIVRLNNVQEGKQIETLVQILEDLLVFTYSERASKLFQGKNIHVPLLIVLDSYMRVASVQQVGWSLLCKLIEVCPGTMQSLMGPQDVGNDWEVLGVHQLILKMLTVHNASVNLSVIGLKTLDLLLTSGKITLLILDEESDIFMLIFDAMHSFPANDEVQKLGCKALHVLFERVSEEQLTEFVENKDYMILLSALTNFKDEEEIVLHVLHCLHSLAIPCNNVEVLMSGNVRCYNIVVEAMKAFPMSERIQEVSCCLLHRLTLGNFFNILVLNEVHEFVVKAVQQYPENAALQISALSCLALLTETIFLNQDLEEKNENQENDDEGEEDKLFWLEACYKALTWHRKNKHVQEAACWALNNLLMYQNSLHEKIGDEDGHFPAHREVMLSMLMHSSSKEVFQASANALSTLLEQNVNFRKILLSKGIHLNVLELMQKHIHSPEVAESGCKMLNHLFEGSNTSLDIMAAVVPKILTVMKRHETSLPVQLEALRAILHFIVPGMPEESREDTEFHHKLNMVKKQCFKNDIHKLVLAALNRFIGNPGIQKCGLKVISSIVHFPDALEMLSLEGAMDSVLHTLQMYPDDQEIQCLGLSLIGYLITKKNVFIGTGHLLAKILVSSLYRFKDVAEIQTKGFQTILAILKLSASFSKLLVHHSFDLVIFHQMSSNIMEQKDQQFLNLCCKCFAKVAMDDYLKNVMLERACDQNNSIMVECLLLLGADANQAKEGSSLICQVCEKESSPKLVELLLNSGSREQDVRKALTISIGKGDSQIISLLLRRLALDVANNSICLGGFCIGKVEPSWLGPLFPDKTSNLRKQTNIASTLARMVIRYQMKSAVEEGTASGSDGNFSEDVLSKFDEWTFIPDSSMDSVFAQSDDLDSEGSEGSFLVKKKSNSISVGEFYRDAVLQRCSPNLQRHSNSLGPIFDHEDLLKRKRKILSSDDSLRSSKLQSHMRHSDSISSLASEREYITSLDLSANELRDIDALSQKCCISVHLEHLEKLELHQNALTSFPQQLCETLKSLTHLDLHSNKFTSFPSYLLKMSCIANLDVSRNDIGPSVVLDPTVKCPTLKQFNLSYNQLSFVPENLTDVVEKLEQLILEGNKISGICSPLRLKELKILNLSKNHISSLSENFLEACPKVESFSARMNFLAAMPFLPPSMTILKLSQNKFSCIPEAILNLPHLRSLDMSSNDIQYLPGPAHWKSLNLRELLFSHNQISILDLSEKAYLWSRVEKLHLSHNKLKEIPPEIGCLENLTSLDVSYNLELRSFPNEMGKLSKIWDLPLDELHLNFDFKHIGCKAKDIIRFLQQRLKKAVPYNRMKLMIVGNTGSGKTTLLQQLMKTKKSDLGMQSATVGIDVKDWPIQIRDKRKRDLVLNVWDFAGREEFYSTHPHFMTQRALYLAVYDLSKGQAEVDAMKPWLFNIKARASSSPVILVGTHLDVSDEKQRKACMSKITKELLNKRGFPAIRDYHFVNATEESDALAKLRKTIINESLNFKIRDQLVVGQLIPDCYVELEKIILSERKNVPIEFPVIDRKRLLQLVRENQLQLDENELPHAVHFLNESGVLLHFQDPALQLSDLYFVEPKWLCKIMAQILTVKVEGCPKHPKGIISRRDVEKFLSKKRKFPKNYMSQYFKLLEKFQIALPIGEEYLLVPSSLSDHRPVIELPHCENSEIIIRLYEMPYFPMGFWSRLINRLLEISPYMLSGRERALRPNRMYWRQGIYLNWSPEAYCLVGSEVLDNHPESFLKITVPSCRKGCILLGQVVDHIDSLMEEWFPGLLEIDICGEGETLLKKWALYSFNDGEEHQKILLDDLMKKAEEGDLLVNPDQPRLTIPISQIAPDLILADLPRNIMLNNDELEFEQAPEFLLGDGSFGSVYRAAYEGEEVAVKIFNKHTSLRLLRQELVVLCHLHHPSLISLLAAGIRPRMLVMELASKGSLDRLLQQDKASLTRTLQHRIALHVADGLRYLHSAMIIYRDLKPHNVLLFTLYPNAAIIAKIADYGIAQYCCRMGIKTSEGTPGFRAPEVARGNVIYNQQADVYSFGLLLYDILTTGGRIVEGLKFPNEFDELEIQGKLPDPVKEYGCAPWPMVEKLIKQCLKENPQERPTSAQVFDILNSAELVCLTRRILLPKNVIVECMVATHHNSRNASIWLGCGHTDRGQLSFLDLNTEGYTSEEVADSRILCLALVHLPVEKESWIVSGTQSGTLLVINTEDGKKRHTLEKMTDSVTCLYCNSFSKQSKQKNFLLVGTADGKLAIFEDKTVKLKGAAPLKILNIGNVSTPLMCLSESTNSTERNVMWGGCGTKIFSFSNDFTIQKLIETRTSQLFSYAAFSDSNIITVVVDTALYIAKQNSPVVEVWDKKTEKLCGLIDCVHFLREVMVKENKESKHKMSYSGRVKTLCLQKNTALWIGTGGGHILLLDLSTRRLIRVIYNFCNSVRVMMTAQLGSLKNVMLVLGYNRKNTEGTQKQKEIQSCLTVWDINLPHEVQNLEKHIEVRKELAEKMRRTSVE

Row | Dmax [%] | DC50 [nM] | SMILES
1 | 50 to 70 | < 10 | COc1c(N2CC3(CCN(CC4CCN(c5cc(-c6n[nH]c7ccc(OC8(C)CC8)cc67)ncn5)CC4)CC3(F)F)C2)ccc2c1CN(C1CCC(=O)NC1=O)C2=O (centres unmarked) [Compound 332, 3-(5-{5,5-difluoro-7-[(1-{6-[5-(1-methylcyclopropoxy)-1H-indazol-3-yl]pyrimidin-4-yl}piperidin-4-yl)methyl]-2,7-diazaspiro[3.5]nonan-2-yl}-4-methoxy-1-oxo-2,3-dihydro-1H-isoindol-2-yl)piperidine-2,6-dione]
2 | 50 to 70 | < 10 | Cc1c(N2CCC(O[C@H]3CC[C@H](CN4CCN(c5cc(-c6n[nH]c7ccc(OC8(C)CC8)cc67)ncn5)CC4)CC3)CC2)ccc2c1CN(C1CCC(=O)NC1=O)C2=O (some centres unmarked) [Compound 333, 3-(4-methyl-5-(4-(((1r,4r)-4-((4-(6-(5-(1-methylcyclopropoxy)-1H-indazol-3-yl)pyrimidin-4-yl)piperazin-1-yl)methyl)cyclohexyl)oxy)piperidin-1-yl)-1-oxoisoindolin-2-yl)piperidine-2,6-dione]
3 | 50 to 70 | < 10 | CC1(Oc2ccc3n[nH]c(-c4cc(N5CCN(C[C@H]6C[C@H](CN7CCN(c8ccc9c(c8F)CN(C8CCC(=O)NC8=O)C9=O)CC7)C6)CC5)ncn4)c3c2)CC1 (some centres unmarked) [Compound 334, 3-[4-fluoro-1-oxo-5-(4-{[(1r,3r)-3-[(4-{6-[5-(1-methylcyclopropoxy)-2H-indazol-3-yl]pyrimidin-4-yl}piperazin-1-yl)methyl]cyclobutyl]methyl}piperazin-1-yl)-2,3-dihydro-1H-isoindol-2-yl]piperidine-2,6-dione]
4 | 50 to 70 | < 10 | CC1(Oc2ccc3n[nH]c(-c4cc(N5CCC(O[C@H]6C[C@H](N7CC8(CCN(c9ccc%10c(c9F)CN(C9CCC(=O)NC9=O)C%10=O)CC8)C7)C6)CC5)ncn4)c3c2)CC1 (some centres unmarked) [Compound 335, 3-(4-fluoro-1-oxo-5-{2-[(1r,3r)-3-[(1-{6-[5-(1-methylcyclopropoxy)-2H-indazol-3-yl]pyrimidin-4-yl}piperidin-4-yl)oxy]cyclobutyl]-2,7-diazaspiro[3.5]nonan-7-yl}-2,3-dihydro-1H-isoindol-2-yl)piperidine-2,6-dione]
5 | 50 to 70 | < 10 | CC1(Oc2ccc3[nH]nc(-c4cc(N5CCN(CCN6CCC7(CN(c8ccc9c(c8F)CN(C8CCC(=O)NC8=O)C9=O)C7)C(F)(F)C6)CC5)ncn4)c3c2)CC1 (centres unmarked) [Compound 336, 3-(5-{5,5-difluoro-7-[2-(4-{6-[5-(1-methylcyclopropoxy)-1H-indazol-3-yl]pyrimidin-4-yl}piperazin-1-yl)ethyl]-2,7-diazaspiro[3.5]nonan-2-yl}-4-fluoro-1-oxo-2,3-dihydro-1H-isoindol-2-yl)piperidine-2,6-dione]
6 | ≥ 70 | < 10 | CC1(Oc2ccc3n[nH]c(-c4cc(N5CCC(CN6CC(F)(CC7CCN(c8ccc9c(c8F)CN(C8CCC(=O)NC8=O)C9=O)CC7)C6)CC5)ncn4)c3c2)CC1 (centres unmarked) [Compound 337, 3-{4-fluoro-5-[4-({3-fluoro-1-[(1-{6-[5-(1-methylcyclopropoxy)-2H-indazol-3-yl]pyrimidin-4-yl}piperidin-4-yl)methyl]azetidin-3-yl}methyl)piperidin-1-yl]-1-oxo-2,3-dihydro-1H-isoindol-2-yl}piperidine-2,6-dione]
7 | 50 to 70 | < 10 | COc1c(N2CCC(CN3CCN(CC4CCN(c5cc(-c6n[nH]c7cnc(OC8(C)CC8)cc67)ncn5)CC4)C(C)(C)C3)CC2)ccc2c1CN(C1CCC(=O)NC1=O)C2=O (centres unmarked) [Compound 338, 3-{5-[4-({3,3-dimethyl-4-[(1-{6-[5-(1-methylcyclopropoxy)-1H-pyrazolo[3,4-c]pyridin-3-yl]pyrimidin-4-yl}piperidin-4-yl)methyl]piperazin-1-yl}methyl)piperidin-1-yl]-4-methoxy-1-oxo-2,3-dihydro-1H-isoindol-2-yl}piperidine-2,6-dione]
8 | 50 to 70 | < 10 | C[C@H]1CN(CC2CCN(CC3CCN(c4cc(-c5n[nH]c6ccc(OC7(C)CC7)cc56)ncn4)CC3)CC2)CCN1c1ccc2c(c1F)CN(C1CCC(=O)NC1=O)C2=O (stereo partly drawn) [Compound 339, 3-{4-fluoro-5-[(2S)-2-methyl-4-({1-[(1-{6-[5-(1-methylcyclopropoxy)-1H-indazol-3-yl]pyrimidin-4-yl}piperidin-4-yl)methyl]piperidin-4-yl}methyl)piperazin-1-yl]-1-oxo-2,3-dihydro-1H-isoindol-2-yl}piperidine-2,6-dione]
9 | 50 to 70 | < 10 | COc1c(N2CC3(CCN(CCC4CCN(c5cc(-c6n[nH]c7ccc(OC8(C)CC8)cc67)ncn5)CC4)CC3(F)F)C2)ccc2c1CN(C1CCC(=O)NC1=O)C2=O (centres unmarked) [Compound 341, 3-(5-{5,5-difluoro-7-[2-(1-{6-[5-(1-methylcyclopropoxy)-1H-indazol-3-yl]pyrimidin-4-yl}piperidin-4-yl)ethyl]-2,7-diazaspiro[3.5]nonan-2-yl}-4-methoxy-1-oxo-2,3-dihydro-1H-isoindol-2-yl)piperidine-2,6-dione]
10 | 50 to 70 | < 10 | CC1(Oc2ccc3n[nH]c(-c4cc(N5CCC(O[C@H]6C[C@H](N7CC[C@@H](c8ccc9c(c8)CN(C8CCC(=O)NC8=O)C9=O)[C@@H](F)C7)C6)CC5)ncn4)c3c2)CC1 (some centres unmarked) [Compound 342, 3-{5-[(3r,4s)-3-fluoro-1-[(1r,3r)-3-[(1-{6-[5-(1-methylcyclopropoxy)-2H-indazol-3-yl]pyrimidin-4-yl}piperidin-4-yl)oxy]cyclobutyl]piperidin-4-yl]-1-oxo-2,3-dihydro-1H-isoindol-2-yl}piperidine-2,6-dione]
11 | 50 to 70 | < 10 | CC1(Oc2cc3c(-c4cc(N5CCC(CN6CCC(F)(CN7CCN(c8ccc9c(c8F)CN(C8CCC(=O)NC8=O)C9=O)CC7)CC6)CC5)ncn4)n[nH]c3cn2)CC1 (centres unmarked) [Compound 343, 3-{4-fluoro-5-[4-({4-fluoro-1-[(1-{6-[5-(1-methylcyclopropoxy)-1H-pyrazolo[3,4-c]pyridin-3-yl]pyrimidin-4-yl}piperidin-4-yl)methyl]piperidin-4-yl}methyl)piperazin-1-yl]-1-oxo-2,3-dihydro-1H-isoindol-2-yl}piperidine-2,6-dione]
12 | 50 to 70 | < 10 | COc1c(N2CC3(CCN([C@H]4C[C@H](OC5CCN(c6cc(-c7[nH]nc8ccc(OC9(C)CC9)cc78)ncn6)CC5)C4)CC3)C2)ccc2c1CN(C1CCC(=O)NC1=O)C2=O (some centres unmarked) [Compound 344, 3-(4-methoxy-1-oxo-5-{7-[(1r,3r)-3-[(1-{6-[5-(1-methylcyclopropoxy)-2H-indazol-3-yl]pyrimidin-4-yl}piperidin-4-yl)oxy]cyclobutyl]-2,7-diazaspiro[3.5]nonan-2-yl}-2,3-dihydro-1H-isoindol-2-yl)piperidine-2,6-dione]
13 | 50 to 70 | < 10 | COc1c(N2CCC(N3CC(F)(CC4CCN(c5cc(-c6[nH]nc7ccc(OC8(C)CC8)cc67)ncn5)CC4)C3)CC2)ccc2c1CN(C1CCC(=O)NC1=O)C2=O (centres unmarked) [Compound 345, 3-(5-(4-(3-fluoro-3-((1-(6-(5-(1-methylcyclopropoxy)-2H-indazol-3-yl)pyrimidin-4-yl)piperidin-4-yl)methyl)azetidin-1-yl)piperidin-1-yl)-4-methoxy-1-oxoisoindolin-2-yl)piperidine-2,6-dione]
